We go through twelve compounds from patent US8329711B2, “Pyridone-substituted-dihydropyrazolopyrimidinone derivative” (MSD K.K., priority 2007, dated 2012).

The subject of test [1] is Cdc2 (Cdk1) tyrosine 15 phosphorylation in WiDr cells. Kind of test: Cdc2 (Cdk1) tyrosine 15-phosphorylation-inhibitory effect in WiDr cells, gemcitabine-treated (ELISA). In kind it is cell-based. The following applies: Homo sapiens, 100 nM gemcitabine 24 hours, then test compound with nocodazole 8 hours, read-out: Cdc2-Y15 Phosphorylation-Inhibitory Effect (WiDr, +gemcitabine) (EC50). From the text:
Pharmacological Test 2 (Method of Determining Drug Potency with Cells (Cdc2 (Cdk1) Tyrosine 15-Phosphorylation-Inhibitory Effect))
Fetal bovine serum (FBS) was gotten from Morgate; media RPMI1640 and DMEM were from Invitrogen; camptothecin was from Sigma; gemcitabine was from Nippon Eli Lilly; nocodazole and protease inhibitor cocktail were from Sigma; rabbit anti-Cdc2 antibody and mouse anti-Cdc2 antibody were from Santa Cruz Biotechnology; rabbit anti-tyrosine 15-phosphorylated Cdc2 antibody and horseradish peroxidase-labeled anti-mouse IgG antibody were from Cell Signaling Technology; sure blue reserve TMB peroxidase substrate was from Kirkegaard and Perry Laboratories.
Human non-small cell lung cancer cells (NCI-H1299) and human colon cancer cells (WiDr) were gotten from American Type Culture Collection (ATCC).
In the method of using WiDr cells, the cells were suspended in a medium of 10% FBS-added DMEM, and the cell suspension was applied to a 96-well Nunclondelta-processed plastic plate in an amount of 2000 cells/100 μL/well, in which the cells were incubated overnight in 5% CO2-95% air at 37° C. Gemcitabine was dissolved in PBS, and diluted with a medium of 10% FBS-added DMEM, and then this was applied to the plate on which the cells had been previously sowed, in an amount of 50 μL/well in such a manner that the final concentration of gemcitabine could be 100 nM. Then, the cells were incubated for 24 hours at 37° C. in 5% CO2-95% air. A test compound was stepwise diluted with DMSO, then diluted with 1200 nM nocodazole-containing, 10% FBS-added DMEM, and applied to the plate on which the […] cells had been sowed, in an amount of 50 μL/well. The cells were incubated for 8 hours at 37° C. in 5% CO2-95% air, then the culture was removed, and a cytolytic buffer was added to the plate in an amount of 100 μL/well, shaken at 4° C. for 2 hours, then frozen at −80° C., and thawed to give a cell solution. […] Cdc2 was determined through ELISA as follows: A rabbit anti-Cdc2 antibody solution, which had been diluted 200-fold with 50 mM carbonate-bicarbonate buffer (pH 9.6), was applied to a 96-well maxisorp plastic plate in an amount of 50 μL/well, and statically kept overnight at 4° C. so as to fix the antibody on the plate. […] Then, 1 M hydrochloric acid was added to it in an amount of 100 μL/well to stop the reaction, and this was analyzed through colorimetry. Tyrosine 15-phosphorylated Cdc2 was determined through ELISA as follows: A rabbit anti-tyrosine 15-phosphorylated Cdc2 antibody solution, which had been diluted 100-fold with 50 mM carbonate-bicarbonate buffer (pH 9.6), was applied to a 96-well maxisorp plastic plate in an amount of 50 μL/well, and statically kept overnight at 4° C. so as to fix the antibody on the plate. […]

Another test deals with T1, Wee1 kinase (Homo sapiens, UniProt P30291).
T1 construct: made in house; host or cells: Sf9 insect cells (recombinant baculovirus)
T1 sequence (P30291 whole entry): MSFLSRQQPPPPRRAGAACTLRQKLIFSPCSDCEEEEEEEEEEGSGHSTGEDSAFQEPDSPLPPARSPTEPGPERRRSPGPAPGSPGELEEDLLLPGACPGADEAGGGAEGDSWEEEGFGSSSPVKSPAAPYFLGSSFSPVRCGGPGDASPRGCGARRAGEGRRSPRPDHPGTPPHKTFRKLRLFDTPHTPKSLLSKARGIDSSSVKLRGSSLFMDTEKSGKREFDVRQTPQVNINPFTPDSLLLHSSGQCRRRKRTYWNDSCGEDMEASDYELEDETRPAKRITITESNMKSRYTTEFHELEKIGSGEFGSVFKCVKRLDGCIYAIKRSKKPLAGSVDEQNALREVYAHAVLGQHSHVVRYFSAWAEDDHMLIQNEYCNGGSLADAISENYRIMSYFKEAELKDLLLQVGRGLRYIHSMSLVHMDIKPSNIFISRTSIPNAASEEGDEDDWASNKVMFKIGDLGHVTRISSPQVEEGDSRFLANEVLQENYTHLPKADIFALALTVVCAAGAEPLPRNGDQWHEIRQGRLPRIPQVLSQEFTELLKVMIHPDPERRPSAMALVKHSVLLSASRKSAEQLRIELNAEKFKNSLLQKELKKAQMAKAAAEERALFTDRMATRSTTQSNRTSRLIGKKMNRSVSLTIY
Put plainly: Wee1 kinase-inhibitory effect (33P-ATP filter assay with GST-tagged Wee1). In kind it is biochemical. The following applies: purified GST-Wee1, Poly(Lys,Tyr) substrate, 10 μM ATP, 30° C. for 30 minutes; read-out: Weel-Inhibitory Effect (IC50). The source says:
Pharmacological Test 1 (Wee1 Kinase-Inhibitory Effect)
(1) Purification of Wee1 Kinase:
A cDNA of Wee1 kinase with glutathion-S-transferase (GST) fused at the amino terminal thereof was inserted into a baculovirus expression vector to construct a recombinant baculovirus, with which cells of an insect cell line Sf9 were infected for high expression therein. The infected cells were collected and solubilized, and then the GST-tagged Wee1 kinase protein was adsorbed by a glutathion column, and eluted from the column with glutathion, and the active fraction was desalted in a desalting column to give a purified enzyme.
(2) Determination of Wee1 Kinase Activity:
In determination of the Wee1 kinase activity, a synthetic peptide, Poly(Lys,Tyr) Hydrobromide (Lys:Tyr (4:1)) bought from Sigma was used as the substrate.
The amount of the reaction liquid was 21.1 μL; and the composition of the reaction buffer was 50 mM Tris-HCl buffer (pH 7.4)/10 mM magnesium chloride/1 mM dithiothreitol. The purified Wee1 kinase, 2.5 μg of the substrate peptide, 10 μM of non-labeled adenosine triphosphate (ATP) and 1 μCi of [γ-^33P]-labeled ATP (2500 Ci/mmol or more) were added to it, and reacted at 30° C. for 30 minutes. Next, 10 μL of 350 mM phosphate buffer was added to the reaction system to stop the reaction. The substrate peptide was adsorbed by a P81 paper filter 96-well plate, then washed a few times with 130 mM phosphate buffer, and its radioactivity was counted with a liquid scintillation counter. The [γ-^33P]-labeled ATP was bought from Amersham Bioscience.
To add a test compound to the reaction system, the compound was diluted with dimethyl sulfoxide (DMSO) to prepare a series of dilutions. 1.1 μL of each dilution was added to the reaction system. As a control, 1.1 μL of DMSO was added to the reaction system.

Turning to `C=CCn1c(=O)c2cnc(Nc3ccc(N4CC[C@@H](N(C)C)C4)cc3)nc2n1-c1cccc(-n2ccccc2=O)n1` [Example 2, 6′-[2-allyl-6-({4-[(3R)-3-(dimethylamino)pyrrolidin-1-yl]phenyl}amino)-3-oxo-2,3-dihydro-1H-pyrazolo[3,4-d]pyrimidin-1-yl]-2H-1,2′-bipyridin-2-one], the EC50 in test [1] amounted to 110 nM. Further, on Wee1 kinase, the IC50 came out at 18 nM.
On to `C=CCn1c(=O)c2cnc(Nc3ccc(N4CC[C@H](N(C)C)C4)cc3)nc2n1-c1cccc(-n2ccccc2=O)n1` [Example 3, 6′-[2-allyl-6-({4-[(3S)-3-(dimethylamino)pyrrolidin-1-yl]phenyl}amino)-3-oxo-2,3-dihydro-1H-pyrazolo[3,4-d]pyrimidin-1-yl]-2H-1,2′-bipyridin-2-one], for which the IC50 at Wee1 kinase was determined as 16 nM.
`C=CCn1c(=O)c2cnc(Nc3ccc(N4CCN(C)CC4)cc3)nc2n1-c1cc(F)cc(-n2ccccc2=O)c1` [Example 4, 2-allyl-1-[3-fluoro-5-(2-oxopyridin-1(2H)-yl)phenyl]-6-{[4-(4-methylpiperazin-1-yl)phenyl]amino}-1,2-dihydro-3H-pyrazolo[3,4-d]pyrimidin-3-one]: the EC50 in test [1] was found to be 86 nM. Also, the concentration for half-maximal inhibition (IC50) on Wee1 kinase is 7.2 nM.
Taken in the same sequence, the figures for `C=CCn1c(=O)c2cnc(Nc3ccc(C4CCN(C)CC4)cc3)nc2n1-c1cccc(-n2ccccc2=O)c1` [Example 8] were 170 nM and 24 nM.
For the compound `C=CCn1c(=O)c2cnc(Nc3ccc(C4CCN(C)CC4)cc3)nc2n1-c1cccc(-n2ccccc2=O)n1` [Example 9, 6′-(2-Allyl-6-{[4-(1-methylpiperidin-4-yl)phenyl]amino}-3-oxo-2,3-dihydro-1H-pyrazolo[3,4-d]pyrimidin-1-yl)-2H-1,2′-bipyridin-2-one], the IC50 at Wee1 kinase was found to be 11 nM.
Regarding `C=CCn1c(=O)c2cnc(Nc3ccc(N4CCN(C)CC4)c(C)c3)nc2n1-c1cccc(-n2ccccc2=O)n1` [Example 11, 6′-(2-Allyl-6-{[3-methyl-4-(4-methylpiperazin-1-yl)phenyl]amino}-3-oxo-2,3-dihydro-1H-pyrazolo[3,4-d]pyrimidin-1-yl)-2H-1,2′-bipyridin-2-one], the EC50 in test [1] turned out to be 92 nM. For the same compound, the IC50 at Wee1 kinase was 10 nM.
For the compound `C=CCn1c(=O)c2cnc(Nc3ccc(N4CC(F)(F)C4)cc3)nc2n1-c1cccc(-n2ccccc2=O)n1` [Example 17, 6′-(2-Allyl-6-{[4-(3,3-difluoroazetidin-1-yl)phenyl]amino}-3-oxo-2,3-dihydro-1H-pyrazolo[3,4-d]pyrimidin-1-yl)-2H-1,2′-bipyridin-2-one], the IC50 at Wee1 kinase turned out to be 6.9 nM.
On to `C=CCn1c(=O)c2cnc(Nc3cccc(C4CCN(C)CC4)c3)nc2n1-c1cccc(-n2ccccc2=O)n1` [Example 27, 6′-(2-Allyl-6-{[3-(1-methylpiperizin-4-yl)phenyl]amino}-3-oxo-2,3-dihydro-1H-pyrazolo[3,4-d]pyrimidin-1-yl)-2H-1,2′-bipyridin-2-one], for which the IC50 at Wee1 kinase was 6.9 nM.
On the same count and under the same terms, the same measure for `C=CCn1c(=O)c2cnc(Nc3ccc(OC)c(CO)c3)nc2n1-c1cccc(-n2ccccc2=O)n1` [Example 29, 6′-(2-Allyl-6-{[3-(hydroxymethyl)-4-methoxyphenyl]amino}-3-oxo-2,3-dihydro-1H-pyrazolo[3,4-d]pyrimidin-1-yl)-2H-1,2′-bipyridin-2-one]: 6.5 nM.
With `CN1Cc2cc(Nc3ncc4c(=O)n(C)n(-c5cccc(-n6ccccc6=O)n5)c4n3)ccc2C2(CC2)C1` [Example 38, 6′-{2-Methyl-6-[(2′-methyl-2′,3′-dihydro-1′H-spiro[cyclopropane-1,4′-isoquinolin]-7′-yl)amino]-3-oxo-2,3-dihydro-1H-pyrazolo[3,4-d]pyrimidin-1-yl}-2H-1,2′-bipyridin-2-one], the IC50 at Wee1 kinase was determined as 12.6 nM.
As for `CC(C)n1c(=O)c2cnc(Nc3ccc4c(c3)CN(C)CC43CC3)nc2n1-c1cccc(-n2ccccc2=O)n1` [Example 39, 6′-{2-Isopropyl-6-[(2′-methyl-2′,3′-dihydro-1′H-spiro[cyclopropane-1,4′-isoquinolin]-7′-yl)amino)-3-oxo-2,3-dihydro-1H-pyrazolo[3,4-d]pyrimidin-1-yl]-2H-1,2′-bipyridin-2-one], the IC50 on Wee1 kinase stood at 20.6 nM.
Same read-out and setting: the result for `C#CCn1c(=O)c2cnc(Nc3ccc4c(c3)CN(C)CC4)nc2n1-c1cccc(-n2ccccc2=O)n1` [Example 42, 6′-{6-[(2-Methyl-1,2,3,4-tetrahydroisoquinolin-7-yl)amino]-3-oxo-2-(2-propynyl)-2,3-dihydro-1H-pyrazolo[3,4-d]pyrimidin-1-yl}-2H-1,2′-bipyridin-2-one] reads 4.4 nM.
